Results on 49 compounds are retold here after patent publication US20240316047A1, “INHIBITORS OF RNA HELICASE DHX9 AND USES THEREOF” (ACCENT THERAPEUTICS, INC., priority 2022, published 2024).

For this assay, the target named is Human recombinant DHX9 protein (Homo sapiens (Human), UniProt Q08211). Put plainly: DHX9 ATPase assay (ADP-Glo). It is filed as biochemical. The conditions noted are these: for IC50: read-out: DHX9 Biochemical Inflection Point. Background: ADP-Glo first removes unused ATP, then detects ADP through luciferase.
Sequence of Human recombinant DHX9 protein (Q08211 whole entry): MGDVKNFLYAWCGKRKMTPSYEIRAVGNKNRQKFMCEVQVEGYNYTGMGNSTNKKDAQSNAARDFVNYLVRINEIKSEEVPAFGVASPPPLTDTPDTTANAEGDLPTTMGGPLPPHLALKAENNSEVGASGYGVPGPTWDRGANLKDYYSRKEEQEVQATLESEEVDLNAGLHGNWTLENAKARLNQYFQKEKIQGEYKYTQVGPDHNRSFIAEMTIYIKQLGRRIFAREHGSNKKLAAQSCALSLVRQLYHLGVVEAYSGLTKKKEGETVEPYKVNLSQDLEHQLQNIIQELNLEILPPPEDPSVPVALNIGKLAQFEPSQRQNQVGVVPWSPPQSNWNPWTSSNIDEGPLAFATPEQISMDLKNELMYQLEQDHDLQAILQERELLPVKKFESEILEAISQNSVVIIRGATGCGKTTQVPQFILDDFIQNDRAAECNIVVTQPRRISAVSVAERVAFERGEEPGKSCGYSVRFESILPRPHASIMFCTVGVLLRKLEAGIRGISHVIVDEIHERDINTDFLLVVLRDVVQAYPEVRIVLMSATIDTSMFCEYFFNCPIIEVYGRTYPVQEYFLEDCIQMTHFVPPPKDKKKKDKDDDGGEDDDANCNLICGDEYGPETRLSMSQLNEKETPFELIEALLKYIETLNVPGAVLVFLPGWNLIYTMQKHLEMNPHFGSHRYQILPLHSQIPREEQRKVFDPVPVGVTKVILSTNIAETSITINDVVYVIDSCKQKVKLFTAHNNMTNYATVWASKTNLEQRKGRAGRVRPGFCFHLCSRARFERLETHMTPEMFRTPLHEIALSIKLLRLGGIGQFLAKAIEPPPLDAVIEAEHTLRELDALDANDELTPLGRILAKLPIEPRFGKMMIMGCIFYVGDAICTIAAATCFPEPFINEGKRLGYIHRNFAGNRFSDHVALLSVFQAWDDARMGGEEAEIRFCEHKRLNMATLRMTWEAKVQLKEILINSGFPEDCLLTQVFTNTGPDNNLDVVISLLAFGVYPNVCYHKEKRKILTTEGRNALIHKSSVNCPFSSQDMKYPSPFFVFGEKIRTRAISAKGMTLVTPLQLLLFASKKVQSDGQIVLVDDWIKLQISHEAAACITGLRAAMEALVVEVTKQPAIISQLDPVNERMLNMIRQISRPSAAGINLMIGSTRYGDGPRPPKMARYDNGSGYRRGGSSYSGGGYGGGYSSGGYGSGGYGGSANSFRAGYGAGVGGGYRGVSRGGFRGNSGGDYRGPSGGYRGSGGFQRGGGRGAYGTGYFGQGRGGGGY

Turning to `COc1ccc(-c2cc(C(=O)Nc3cc(Cl)cc(NS(C)(=O)=O)c3)sc2C)nc1` [Example 352], the “DHX9 Biochemical Max Inhibition” value is recorded as 84.1%.

Consider `CN1CCN(C(=O)c2cc(C(=O)Nc3cc(Cl)cc(NS(C)(=O)=O)c3)cn2-c2ccccn2)CC1` [Example 665], for which the “DHX9 Biochemical Max Inhibition” value came to 70.1 and the IC50 stood at 30.9 nM.

On to `Cn1cc(C(=O)Nc2cc(Cl)cc(NS(C)(=O)=O)c2)cc1-c1ccc(OC(C)(C)C)cn1` [Example 555], for which the “DHX9 Biochemical Max Inhibition” value was 61.9 and the IC50 came to 43.6 nM. Take `CS(=O)(=O)Nc1cc(Cl)cc(NC(=O)c2cc(-c3ccc(C(F)(F)F)cn3)cs2)c1` [Example 370]: the “DHX9 Biochemical Max Inhibition” value was 64.3%. For the compound `Cc1sc(C(=O)Nc2cc(Cl)cc(NS(C)(=O)=O)c2)cc1-c1ncc(C(F)(F)F)cn1` [Example 357], the “DHX9 Biochemical Max Inhibition” value is 91.7% and the IC50 was 85.6 nM. Take `Cc1cccnc1-c1csc(C(=O)Nc2cc(Cl)cc(NS(C)(=O)=O)c2)c1C` [Example 684]: the “DHX9 Biochemical Max Inhibition” value is 50.6 and the IC50 came out at 8310 nM. Taken in the same sequence, the figures for `Cc1cc(C(=O)Nc2cc(Cl)cc(NS(C)(=O)=O)c2)cn1-c1ncc(N2CC(F)(F)C2)cn1` [Example 418] were 70.25 and 17 nM.

On to `CCS(=O)(=O)Nc1cc(Cl)cc(NC(=O)c2cc(-c3ncc(F)cc3OC)c(C)s2)c1` [Example 354], for which the “DHX9 Biochemical Max Inhibition” value worked out at 75.5% and the IC50 was determined as 13.4 nM. Take `Cc1sc(C(=O)Nc2cc(Cl)cc(NS(C)(=O)=O)c2)cc1N1C(=O)N(c2ccccn2)C(C)(C)C1=O` [Example 685]: the “DHX9 Biochemical Max Inhibition” value was found to be 64.3 and the IC50 was determined as 117 nM. For the compound `CS(=O)(=O)Nc1cc(Cl)cc(NC(=O)c2cc3c(F)c(F)ccc3s2)c1` [Example 324], the “DHX9 Biochemical Max Inhibition” value was determined as 63.1% and the IC50 came to 164 nM. Taken in the same sequence, the figures for `Cn1cc(C(=O)Nc2cc(Cl)cc(NS(C)(=O)=O)c2)cc1-c1c(F)cc(F)c[n+]1[O-]` [Example 567] were 77 and 58.4 nM. Take `Cn1cc(C(=O)Nc2cc(Cl)cc(NS(C)(=O)=O)c2)cc1-c1ncccn1` [Example 82]: the “DHX9 Biochemical Max Inhibition” value amounted to 69.4% and the IC50 was found to be 9.2 nM. Taken in the same sequence, the figures for `CS(=O)(=O)Nc1cc(Cl)cc(NC(=O)c2cc(-c3ncc(N4CC(F)(F)C4)cn3)cs2)c1` [Example 486] were 61.7 and 17.9 nM. In the case of `CS(=O)(=O)Nc1cc(Cl)cc(NC(=O)c2cc(-c3cccc(F)c3)cs2)c1` [Example 108], the “DHX9 Biochemical Max Inhibition” value amounted to 59.8% and the IC50 worked out at 210 nM. Turning to `CCOc1cnn(-c2cc(C(=O)Nc3cc(Cl)cc(NS(C)(=O)=O)c3)sc2C)c1` [Example 438], the “DHX9 Biochemical Max Inhibition” value is given as 66.9 and the IC50 is 5.8 nM. For the compound `CCS(=O)(=O)Nc1cc(Cl)cc(NC(=O)c2cc(-c3ncc(F)cn3)c(C)s2)c1` [Example 344], the “DHX9 Biochemical Max Inhibition” value is given as 74.1% and the IC50 was 21 nM.

On to `Cc1cc(C(=O)Nc2cc(Cl)cc(NS(C)(=O)=O)c2)cn1-c1ncccc1OCC1CC1` [Example 713], for which the “DHX9 Biochemical Max Inhibition” value is on record as 76 and the IC50 is 25 nM. In the case of `Cc1sc(C(=O)Nc2cc(Cl)cc(NS(C)(=O)=O)c2)cc1-c1ncc(N2CCC3(CC2)CC3)cc1F` [Example 467], the “DHX9 Biochemical Max Inhibition” value was 99.3 and the IC50 stood at 155 nM. Take `CS(=O)(=O)Nc1cc(Cl)cc(NC(=O)c2cnn(-c3ncccc3Oc3cccnc3)c2)c1` [Example 676]: the “DHX9 Biochemical Max Inhibition” value came to 68.4 and the IC50 was found to be 70 nM. For the compound `CS(=O)(=O)Nc1cc(Cl)cc(NC(=O)c2cnn(-c3ncccc3OCc3ccccc3F)c2)c1` [Example 189], the “DHX9 Biochemical Max Inhibition” value is recorded as 72.1% and the IC50 is 32.7 nM. For `Cc1sc(C(=O)Nc2cc(Cl)cc(NS(C)(=O)=O)c2)cc1-c1c(F)cncc1F` [Example 362], in that order: 88.6% and 44.3 nM. For `CN1CC(Oc2cnc(-c3cc(C(=O)Nc4cc(Cl)cc(NS(C)(=O)=O)c4)cn3CC(F)(F)F)nc2)C1` [Example 613], in that order: 70.3 and 4.2 nM. As to `CS(=O)(=O)Nc1cc(Cl)cc(NC(=O)c2cnn(-c3ncc(F)cc3CCc3cccc(F)c3)c2)c1` [Example 251], the “DHX9 Biochemical Max Inhibition” value is on record as 64.7% and the IC50 was found to be 5200 nM. With `Cn1cc(C(=O)Nc2cc(Cl)cc(NS(C)(=O)=O)c2)cc1-c1ccc(N2CC3(COC3)C2)cn1` [Example 277], the “DHX9 Biochemical Max Inhibition” value is 72.5% and the IC50 amounted to 4.3 nM. Taken in the same sequence, the figures for `CS(=O)(=O)Nc1cc(Cl)cc(NC(=O)c2nc(-c3ccccc3)c[nH]2)c1` [Example 9] were 44.5% and 390 nM. For the compound `CS(=O)(=O)Nc1cc(Cl)cc(NC(=O)c2cnn(-c3ncc(F)cc3OCc3cnco3)c2)c1` [Example 719], the “DHX9 Biochemical Max Inhibition” value is 69.7 and the IC50 was 84.7 nM. As for `Cn1cc(C(=O)Nc2cc(Cl)cc(NS(C)(=O)=O)c2)cc1-c1ncc(N2CCC3(CC2)COC3)cc1F` [Example 475], the “DHX9 Biochemical Max Inhibition” value was found to be 64.7 and the IC50 was 13.6 nM. For `CC(=O)N1CCC(n2cc(C(=O)Nc3cc(Cl)cc(NS(C)(=O)=O)c3)cn2)CC1` [Example 317], in that order: 63.8% and 272 nM. Turning to `CS(=O)(=O)Nc1cc(Cl)cc(NC(=O)c2cc(-c3ccc(F)cn3)n(S(C)(=O)=O)c2)c1` [Example 701], the “DHX9 Biochemical Max Inhibition” value came to 66.9 and the IC50 was found to be 115 nM. Regarding `CN(c1ncccn1)c1cccnc1-c1csc(C(=O)Nc2cc(Cl)cc(NS(C)(=O)=O)c2)c1` [Example 238], the “DHX9 Biochemical Max Inhibition” value amounted to 72.9% and the IC50 stood at 22.9 nM. `Cn1cc(C(=O)Nc2cc(Cl)cc(NS(C)(=O)=O)c2)cc1-c1ncc(N2CC(C(F)(F)F)C2)cc1F` [Example 524, N-(3-chloro-5-methanesulfonamidophenyl)-5-{3-fluoro-5-[3-(trifluoromethyl)azetidin-1-yl]pyridin-2-yl}-1-methyl-1H-pyrrole-3-carboxamide]: the “DHX9 Biochemical Max Inhibition” value amounted to 62.65 and the IC50 was 32.9 nM. Consider `CS(=O)(=O)Nc1cc(Br)cc(NC(=O)c2cc(-c3ncccn3)cs2)c1` [Example 25], for which the “DHX9 Biochemical Max Inhibition” value was determined as 61.3% and the IC50 amounted to 5.6 nM. Taken in the same sequence, the figures for `CC(C)(C)OC(=O)N1CC2(CC(n3cc(C(=O)Nc4cc(Cl)cc(NS(C)(=O)=O)c4)cn3)C2)C1` [Example 144, tert-butyl 6-(4-((3-chloro-5-(methylsulfonamido)phenyl)carbamoyl)-1H-pyrazol-1-yl)-2-azaspiro[3.3]heptane-2-carboxylate] were 65.1% and 224 nM. `Cn1cc(C(=O)Nc2cc(Cl)cc(NS(C)(=O)=O)c2)cc1-c1ncc(N2CCCC2)cn1` [Example 520]: the “DHX9 Biochemical Max Inhibition” value worked out at 70.8 and the IC50 amounted to 13.7 nM. For `Cc1cccnc1-n1cc(C(=O)Nc2cc(Br)cc(NS(C)(=O)=O)c2)cn1` [Example 49], in that order: 58.6% and 49.7 nM. As to `Cn1cc(C(=O)Nc2cc(F)cc(NS(C)(=O)=O)c2)cc1-c1ncc(F)cc1F` [Example 558], the “DHX9 Biochemical Max Inhibition” value is on record as 78 and the IC50 came out at 45.8 nM. As for `CS(=O)(=O)Nc1cc(Cl)cc(NC(=O)c2cc(Cl)n(-c3ncc(F)cn3)c2)c1` [Example 709], the “DHX9 Biochemical Max Inhibition” value was found to be 60.9 and the IC50 was found to be 100 nM. As for `Cc1cc(C(=O)Nc2cc(Cl)cc(NS(C)(=O)=O)c2)cn1-c1ccccc1` [Example 129, N-(3-chloro-5-(methylsulfonamido)phenyl)-5-methyl-1-phenyl-1H-pyrrole-3-carboxamide], the “DHX9 Biochemical Max Inhibition” value was determined as 66.4%. For `CS(=O)(=O)Nc1cc(Cl)cc(NC(=O)c2cc(-c3ncccc3OCc3cccnc3)cs2)c1` [Example 217], the “DHX9 Biochemical Max Inhibition” value is listed as 69.6% and the IC50 stood at 2.1 nM. Regarding `Cn1cc(C(=O)Nc2cc(Cl)cc(NS(C)(=O)=O)c2)cc1-c1ccc(N2CCCC2)cn1` [Example 402], the “DHX9 Biochemical Max Inhibition” value worked out at 76.8 and the IC50 turned out to be 45.1 nM. With `Cc1sc(C(=O)Nc2cc(Cl)cc(NS(C)(=O)=O)c2)cc1-c1ccc(C2CN(CC(F)(F)F)C2)cn1` [Example 710], the “DHX9 Biochemical Max Inhibition” value came to 69 and the IC50 was 14.5 nM. For the compound `Cc1sc(C(=O)Nc2cc(Cl)cc(NS(C)(=O)=O)c2)cc1-c1ccc(N2CC3(C2)CC(F)(F)C3)cn1` [Example 499], the “DHX9 Biochemical Max Inhibition” value was determined as 68.1 and the IC50 is 35.7 nM. Regarding `CS(=O)(=O)Nc1cc(Cl)cc(NC(=O)c2cnn(-c3ncc(N4CC5(COC5)C4)cc3O)c2)c1` [Example 691], the “DHX9 Biochemical Max Inhibition” value is recorded as 68.5 and the IC50 came to 35.9 nM. With `CS(=O)(=O)Nc1cc(Cl)cc(NC(=O)c2cnn(-c3ccc(N4CC5(COC5)C4)cc3OCc3cccc(F)c3)c2)c1` [Example 722], the “DHX9 Biochemical Max Inhibition” value is 74.4 and the IC50 came to 19.1 nM. Turning to `Cn1cc(C(=O)Nc2cc(Cl)cc(NS(C)(=O)=O)c2)cc1-c1ncc(C(F)(F)F)cc1F` [Example 554], the “DHX9 Biochemical Max Inhibition” value worked out at 79.7 and the IC50 amounted to 76.1 nM. Taken in the same sequence, the figures for `CS(=O)(=O)Nc1cc(Br)cc(NC(=O)c2cccc(-n3cccn3)c2)c1` [Example 118] were 55.8% and 45.1 nM.

`CCS(=O)(=O)Nc1cc(Cl)cc(NC(=O)c2cc(-c3ncc(C)cc3F)n(C)c2)c1` [Example 548]: the “DHX9 Biochemical Max Inhibition” value was 64.6 and the IC50 stood at 27.3 nM. As to `Cc1cccnc1-c1nc(C(=O)Nc2cc(Cl)cc(NS(C)(=O)=O)c2)cn1C` [Example 156], the “DHX9 Biochemical Max Inhibition” value is listed as 51.2% and the IC50 is 695 nM. Taken in the same sequence, the figures for `Cc1sc(C(=O)Nc2cc(Cl)cc(NS(C)(=O)=O)c2)cc1-c1ncc(N2CC(F)(F)C2)cc1OC1CCC1` [Example 514] were 73.8 and 73.3 nM.
